Where two headings read alike, the source gives them in different places.
How the values were obtained:
[1] = target: biotin protein ligase from S. aureus (SaBPL) (Staphylococcus aureus, UniProt A0A3A5LBF0); test: BPL enzyme inhibition assay (3H-biotin incorporation), SaBPL; format: biochemical; settings: for IC50: 4 nM BPL, 20 minutes at 37° C.; for selectivity towards SaBPL over HsBPL (human BPL): Hs vs SaBPL
Description: (§1) Quantitation of BPL catalysed ^3H-biotin incorporation into the biotin domain substrate was performed as previously described by Polyak et al, J. Biol. Chem (1999) 274(46) 32847-54. Briefly, the reaction mixture contained: 50 mM Tris HCl pH 8.0, 3 mM ATP, 4.5 μM biotin, 0.5 μM ^3H-biotin, 5.5 mM MgCl2, 100 mM KCl, 0.1 mg/mL BSA and 10 μM biotin domain of S. aureus pyruvate carboxylase. The reaction was initiated by the addition of BPL to a final concentration of 4 nM. After 20 minutes at 37° C., 4 μL aliquots of the reaction were spotted onto Whatman paper pre-treated with biotin and trichloroacetic acid. The filters were washed twice with 10% v/v ice-cold trichloroacetic acid and once with ethanol before air-drying. Quantitation of protein-bound radiolabelled biotin was performed by liquid scintillation. One unit of enzyme activity was defined by the amount of BPL required to incorporate 1 nmol of biotin per minute. The IC50 value of each compound was determined from a dose-response curve by varying the concentration of the inhibitor under the same enzyme concentration. The data was analysed with GraphPad Prism using a non-linear fit of log10 (inhibitor) vs. normalized response. The Ki, the absolute inhibition constant for a compound, was determined using Eq 1:
The mode of inhibition was investigated by varying the concentrations of inhibitor alongside varying the concentrations of ^3H-biotin. The data was plotted as double reciprocal plots and assessed using Lineweaver-Burk analysis.
Triazoles 6.02-6.10 were assayed for inhibitory activity against the biotin protein ligases from S. aureus (SaBPL), Escherichia coli (EcBPL) and Homo sapiens (HsBPL) (Table 3). The inhibitory activity of the compounds was determined by measuring BPL activity with varying concentrations of inhibitors. From the dose-response curves IC50 values were determined and Ki values calculated.

[2] = target: biotin protein ligase from Escherichia coli (EcBPL) (Escherichia coli (strain K12), UniProt P06709); test: BPL enzyme inhibition assay (3H-biotin incorporation), EcBPL; format: biochemical
Description: as §1
(§2) The inhibitory activity of the compounds was determined by measuring BPL activity with varying concentrations of inhibitors. From the dose-response curves IC50 values were determined and Ki values calculated.

[3] = target: biotin protein ligase from Homo sapiens (HsBPL) (Homo sapiens (Human), UniProt P50747); test: BPL enzyme inhibition assay (3H-biotin incorporation), HsBPL; format: biochemical
Description: as §1, §2

Enterococcus faecium = test: Antimicrobial microbroth dilution assay, E. faecium; format: cell-based
Description: (§3) The biotin-triazoles were assessed for their antimicrobial activity using a microbroth dilution assay as recommended by the CLSI (Clinical and Laboratory Standards Institute, Document […]-A8, 2009, Wayne, Pa.) with cation-adjusted Mueller-Hinton broth (Trek Diagnostics Systems, U.K.). Compounds were dissolved using DMSO. Serial two-fold dilutions of each compound were made using DMSO as the diluent. Trays were inoculated with 5×10^4 CFU of each strain in a volume of 100 μL (final concentration of DMSO was 5% (v/v)), and incubated at 35° C. for 16-20 hours when the optical density of the growth cultures was measured by spectroscopy at wavelength 620 nm. A library of Gram negative and Gram positive microbes was employed.

S. aureus ATCC 49775 = test: Antimicrobial microbroth dilution assay, S. aureus; format: cell-based, Staphylococcus aureus; settings: at 8 μg/ml
Description: as §3, with “employed. […] Inhibition of the growth of S. aureus ATCC 49775 was measured using a microbroth dilution assay with varying concentrations of BPL inhibitors. […] The antibiotic erythromycin was also included (X).” for “employed.”

Enterococcus faecalis = test: Antimicrobial microbroth dilution assay, E. faecalis; format: cell-based
Description: as §3

M. tuberculosis BPL = M. tuberculosis BPL (Mycobacterium tuberculosis (strain ATCC 25618 / H37Rv), UniProt I6YFP0); test: BPL inhibition, M. tuberculosis BPL; format: biochemical, Mycobacteria tuberculosis
[4] = calculated from IC50, [biotin]=5 μM, Km 1 μM, read-out: Ki SaBPL
[5] = read-out: Ki EcBPL (E. coli BPL)

Sequence of biotin protein ligase from S. aureus (SaBPL) (A0A3A5LBF0 1-323): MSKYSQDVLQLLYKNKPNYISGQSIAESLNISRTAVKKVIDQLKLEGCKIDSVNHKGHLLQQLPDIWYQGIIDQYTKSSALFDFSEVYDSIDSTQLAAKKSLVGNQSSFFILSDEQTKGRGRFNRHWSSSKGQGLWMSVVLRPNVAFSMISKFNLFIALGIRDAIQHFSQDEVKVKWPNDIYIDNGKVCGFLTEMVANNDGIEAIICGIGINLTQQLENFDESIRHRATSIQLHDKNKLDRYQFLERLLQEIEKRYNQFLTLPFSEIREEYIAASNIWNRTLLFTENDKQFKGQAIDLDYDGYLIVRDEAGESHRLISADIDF
Sequence of biotin protein ligase from Escherichia coli (EcBPL) (P06709 whole entry, looked up): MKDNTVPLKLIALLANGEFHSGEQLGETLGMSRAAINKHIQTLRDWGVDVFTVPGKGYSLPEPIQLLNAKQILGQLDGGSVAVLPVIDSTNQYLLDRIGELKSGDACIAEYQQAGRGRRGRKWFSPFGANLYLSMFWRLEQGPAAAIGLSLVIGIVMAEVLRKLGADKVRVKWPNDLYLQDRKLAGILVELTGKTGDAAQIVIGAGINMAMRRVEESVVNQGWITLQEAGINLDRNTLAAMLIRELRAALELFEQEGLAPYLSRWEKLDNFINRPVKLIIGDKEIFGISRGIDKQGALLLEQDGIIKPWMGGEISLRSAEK
Sequence of biotin protein ligase from Homo sapiens (HsBPL) (P50747 whole entry): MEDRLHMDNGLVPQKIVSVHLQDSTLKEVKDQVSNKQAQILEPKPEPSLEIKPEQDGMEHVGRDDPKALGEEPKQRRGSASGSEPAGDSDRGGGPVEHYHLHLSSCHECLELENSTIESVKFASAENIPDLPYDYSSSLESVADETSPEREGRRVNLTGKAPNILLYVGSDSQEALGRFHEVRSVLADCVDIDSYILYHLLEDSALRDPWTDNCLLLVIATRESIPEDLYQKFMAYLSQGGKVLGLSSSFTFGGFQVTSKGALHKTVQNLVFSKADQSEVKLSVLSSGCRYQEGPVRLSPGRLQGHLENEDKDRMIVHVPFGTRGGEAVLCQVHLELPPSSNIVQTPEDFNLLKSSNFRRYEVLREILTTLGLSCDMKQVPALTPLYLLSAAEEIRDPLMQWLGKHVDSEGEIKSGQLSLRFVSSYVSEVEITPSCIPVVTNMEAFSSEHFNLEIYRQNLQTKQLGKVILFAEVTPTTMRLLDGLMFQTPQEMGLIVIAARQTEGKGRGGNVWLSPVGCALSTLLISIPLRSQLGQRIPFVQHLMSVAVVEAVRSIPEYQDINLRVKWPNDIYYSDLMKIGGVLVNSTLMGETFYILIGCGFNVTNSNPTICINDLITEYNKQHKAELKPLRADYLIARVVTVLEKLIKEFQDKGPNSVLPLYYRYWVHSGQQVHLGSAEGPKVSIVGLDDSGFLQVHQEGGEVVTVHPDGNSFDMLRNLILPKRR
Sequence of M. tuberculosis BPL (I6YFP0 whole entry, looked up): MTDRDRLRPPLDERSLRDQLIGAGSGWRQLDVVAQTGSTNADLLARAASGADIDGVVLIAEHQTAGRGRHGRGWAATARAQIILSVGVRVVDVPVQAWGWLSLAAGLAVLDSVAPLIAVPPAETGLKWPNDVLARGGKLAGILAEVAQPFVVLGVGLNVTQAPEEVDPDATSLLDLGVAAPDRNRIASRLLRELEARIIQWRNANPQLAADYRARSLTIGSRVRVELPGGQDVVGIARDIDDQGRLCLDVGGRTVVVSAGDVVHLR

Row | Compound | IC50 [1] [µM] | Ki [1, 4] [µM] | Ki [2] [µM] | Ki [2, 5] [µM] | fold less potent against SaBPL compared to biotinol-5′-AMP 2.02 [1] [fold] | selectivity towards SaBPL over HsBPL (human BPL) [1] | Ki ([1]; read-out: Ki SaBPL) [µM] | Ki [3] [µM] | inhibition against SaBPL [1] | Ki [1] [µM] | also measured
1 | Cc1ccc2oc(=O)n(CCCCOP(=O)(O)OCCCCC[C@@H]3SC[C@@H]4NC(=O)N[C@@H]43)c2c1 | > 50 | > 10 |  |  |  |  |  |  |  |  | 
2 | CC1(C)O[C@@H]2[C@H](O1)[C@@H](n1cnc3c(N)ncnc31)O[C@H]2Cn1cc(CCCCC[C@@H]2SC[C@@H]3NC(=O)N[C@@H]32)nn1 [3.25] | 11.6 ± 2.2 |  | > 90 | > 30 | 60 | > 16 fold | 1.83 ± 0.33 | > 90 |  |  | 
3 | Nc1ncnc2c1ncn2CCCCn1cc(CCCCC[C@@H]2SC[C@@H]3NC(=O)N[C@@H]32)nn1 [4.01] | 4 ± 0.9 | 0.66 ± 0.15 | > 90 | > 30 | 22 | at least 400 fold |  | > 90 | micromolar inhibition |  | IC50 [2]: > 200 µM; selectivity towards SaBPL over EcBPL (E. coli BPL) [1]: at least 400 fold; IC50 ([3]; in b132 the quantity is not named): > 200 µM
4 | CC1(C)O[C@@H]2[C@H](O1)[C@@H](n1cnc3c(N)ncnc31)O[C@H]2Cn1cc(CCCC[C@@H]2SC[C@@H]3NC(=O)N[C@@H]32)nn1 [4.09] |  |  | > 10 |  |  |  |  | > 10 | micromolar inhibition | 7.53 ± 1.9 | fold less potent against SaBPL compared to triazole 3.25 [1]: 4 fold
5 | Nc1ncnc2c1ncn2CCCCCn1cc(CCCC[C@@H]2SC[C@@H]3NC(=O)N[C@@H]32)nn1 [4.13] |  |  | > 10 |  |  |  |  | > 10 | micromolar inhibition | 2.86 ± 0.75 | fold less potent against SaBPL compared to 4.01 [1]: 4 fold
6 | O=C1N[C@H]2[C@H](CS[C@H]2CCCCCc2cn(CCCCOc3ccc4ccccc4c3)nn2)N1 [6.07] | 7 ± 1 | 1.17 ± 0.17 |  | > 30 |  |  |  | > 30 |  |  | fold less potent against SaBPL compared to 4.01 [1]: 7 fold
7 | Cc1ccc2oc(=O)n(CCCCn3cc(CCCCC[C@@H]4SC[C@@H]5NC(=O)N[C@@H]54)nn3)c2c1 [6.09] | 0.53 ± 0.01 |  |  | > 30 | 3 | > 1000 fold | 0.09 ± 0.02 | > 30 |  |  | fold increase in potency against SaBPL compared to 4.01 [1]: 7 fold; selectivity towards SaBPL over EcBPL (E. coli BPL) [1]: > 1000 fold; inhibition of growth of Enterococcus faecium (Enterococcus faecium): no inhibition of growth; prevention of cell growth of S. aureus ATCC 49775 (S. aureus ATCC 49775): 80%; inhibition of growth of Enterococcus faecalis (Enterococcus faecalis): no inhibition of growth
8 | Cc1ccc2oc(=O)n(CCCCc3noc(CCCCC[C@@H]4SC[C@@H]5NC(=O)N[C@@H]54)n3)c2c1 [compound 2, 3-[4-[5-[5-[(3aS,4S,6aR)-2-oxo-1,3,3a,4,6,6a-hexahydrothieno[3,4-d]imidazol-4-yl]pentyl]-1,2,4-oxadiazol-3-yl]butyl]-5-methyl-1,3-benzoxazol-2-one] |  |  |  |  |  |  |  |  |  | 2.2 ± 0.8 | Ki (M. tuberculosis BPL): 290 ± 16 µM
9 | biotin alkyne [3.12] |  |  |  |  |  |  | 0.33 ± 0.05 |  |  |  | 

Reference: patent publication US9108978B2, “Antimicrobial compounds” (ADELAIDE RESEARCH & INNOVATION PTY LTD, priority 2011, dated 2015)
